Measurements: patent publication US11649245B2, “Cyclopropylamine compound as LSD1 inhibitor and use thereof” (HELIOEAST PHARMACEUTICAL CO., LTD., priority 2018, dated 2023)
Structures can show the parent of a compound that is named as a salt.

Tests used:
[1] = target: human LSD1 (Homo sapiens, UniProt O60341); test: In vitro enzyme activity screening against LSD1 (HRP/Amplex Red fluorescence coupling enzyme method); format: biochemical; conditions: human LSD1, histone H3K4me peptide substrate 20 μM
Method: The purpose of this test was to detect the in vitro inhibitory activity of the compounds against LSD1. The enzyme used in this test was human LSD1, the standard substrate was histone H3K4me peptide (20 μM), the fluorescence coupling enzyme method was used to determine the activity of the compound by combining horseradish peroxidase (HRP) and fluorescent reagent Amplex Red to detect the H2O2 generation as a result of the reaction of LSD1. Compounds were tested in 10-dose IC50 mode with a 3-fold serial dilution starting at 10 μM. The enzyme and […] to start the reaction. Fluorescence detector: Envision, excitation wavelength: Ex/Em=530/590 […]

[2] = tested on: NCI-H1417 cells; test: Antiproliferation activity on NCI-H1417 cells (CellTiter-Glo, 10 days); format: cell-based, human; conditions: Homo sapiens, NCI-H1417, 240 h, incubated for 10 days
Method: Experimental purpose: to detect the antiproliferation activity of the compounds on NCI-H1417 cells.
Experimental materials: RPMI 1640 culture medium, fetal bovine serum, Promega CellTiter-Glo reagent. NCI-H1417 cell line purchased from ATCC. Envision multi-label reader (PerkinElmer).
Experimental method: the compounds were dissolved to 10 mM, then the compounds were diluted 5 times with DMSO in a compound plate, the compounds were diluted 3-fold with Bravo from a starting concentration of 2 mM to the 10th concentration, 250 nL of the solutions were transferred to the upper and lower duplicate wells on a blank 384 cell plate by Echo transfer plate, cell suspension of per well/1000 cells/50 μL was added to the transferred 250 nL DMSO/compound, the compounds were diluted 200-fold, i.e., the initial action concentration was 10 μM. The cell plate was placed in a carbon dioxide incubator and incubated for 10 days. 25 μL of Promega CellTiter-Glo reagent was added to each well on the cell plate and was shaken at room temperature for 10 minutes to stabilize the luminescence signal. Readings were performed by PerkinElmer Envision multi-label analyzer.
Data analysis: the equation (Max-Ratio)/(Max-Min)*100% was used to convert the original data into the inhibition rate, the value of IC50 can be obtained by curve fitting of four-parameters (the 205 mode in XLFITS, iDBS).

[3] = tested on: HL60 cells; test: Antiproliferation activity on HL60 cells (CellTiter-Glo, 6 days); format: cell-based; conditions: Homo sapiens, HL-60, 144 h, incubated for 6 days
Source text: Experimental purpose: to detect the antiproliferation activity of the compound to be tested on HL60 cells.
(§1) Experimental materials: RPMI-1640 culture medium, fetal bovine serum, penicillin/streptomycin antibiotics purchased from Wisent. CellTiter-Glo (chemiluminescent cell viability assay reagent) reagents purchased from Promega. HL60 cell line purchased from Nanjing Cobioer Co., Ltd. Nivo multi-label reader (PerkinElmer).
Experimental method: HL60 cells were planted in a white 384-well plate, 40 μL of cell suspension per well, 600 HL60 cells were contained therein. The cell plate was placed in a carbon dioxide incubator for overnight culture. The compounds to be tested were diluted 5-fold with a pipet until the 10th concentration, i.e., diluted from 2 mM to 1.024 nM, double duplicate well experiment was set. 78 μL of the culture medium was added to an intermediate plate, and then 2 μL per well of the serially diluted compounds were transferred to the corresponding positions on the intermediate plate, after mixing, 10 μL per well was transferred to the cell plate. The cell plate was incubated in a carbon dioxide incubator for 6 days. Another cell plate was prepared and the signal value on the day of dosing was read as the maximum value (Max value in the equation below) to participate in the data analysis. 20 μL of chemiluminescent cell viability assay reagent was added to each well of this cell plate, which was incubated at room temperature for 10 minutes to stabilize the luminescence signal. The multi-label reader was used for reading.
(§2) Data analysis: the equation (Sample-Min)/(Max-Min)*100% was used to convert the original data into the inhibition rate, the IC50 value can be obtained by curve fitting of four-parameters (“log(inhibitor) vs. response—Variable slope” mode in GraphPad Prism)).

[4] = tested on: MV-4-11 cells; test: Antiproliferation activity on MV-4-11 cells (CellTiter-Glo, 6 days); format: cell-based; conditions: Homo sapiens, MV4-11, 144 h, incubated for 6 days
Source text: Experimental purpose: to detect the antiproliferation activity of the compound to be tested on MV-4-11 cells.
as §1, with “IMDM” for “RPMI-1640”, “MV-4-11” for “HL60”, “line was” for “line”, “Multi-Marker Analyzer” for “multi-label reader”
Experimental method: MV-4-11 cells were planted in a white 96-well plate, 80 μL of cell suspension per well, which contained 6000 MV-4-11 cells. The cell plate was placed in a carbon dioxide incubator for overnight culture.
The compounds to be tested were diluted 5-fold with a pipet until the 8th concentration, i.e., diluted from 2 mM to 25.6 nM, double duplicate well experiment was set. 78 μL of the culture medium was added to an intermediate plate, and then 2 μL per well of the serially diluted compounds were transferred to the corresponding positions on the intermediate plate, after mixing, 20 μL per well was transferred to the cell plate. The cell plate was incubated in a carbon dioxide incubator for 6 days. Another cell plate was prepared and the signal value on the day of dosing was read as the maximum value (Max value in the equation below) to participate in the data analysis. 25 μL of the chemiluminescent cell viability assay reagent was added to each well of this cell plate, which was incubated at room temperature for 10 minutes to stabilize the luminescence signal. The multi-label analyzer was used for reading.
as §2

[5] = In vivo pharmacokinetics in CD-1 mice; conditions: male, CD-1, mouse, plasma, male CD-1 mice
Method: CD-1 mice (male, 7-9 weeks old, Shanghai Slac)
The rodent pharmacokinetic characteristics after intravenous injection and oral administration of the compounds were tested by standard protocols, in the experiment, the candidate compounds were formulated into clear solutions and administrated to mice via a single intravenous injection and oral administration. The vehicle for intravenous injection and oral administration was a mixed solution of 10% of dimethyl sulfoxide and 90% of 10% hydroxypropyl β cyclodextrin. This project used four male CD-1 mice, two mice were administered intravenously, with a dose of 1 mg/kg, and plasma samples were collected at 0 hour (before administration) and 0.0833, 0.25, 0.5, 1, 2, 4, 8, 24 hours after administration. The other two mice were orally administered by gavage, with a dose of 2 mg/kg, plasma samples were collected at 0 hour (before administration) and 0.25, 0.5, 1, 2, 4, 8, 24 hours after administration, whole blood samples were collected within 24 hours, which were centrifuged at 3000 g for 15 minutes, and the supernatants were separated to obtain plasma samples, 4 times volume of acetonitrile solutions containing internal standard were added to precipitate the protein, the mixtures were centrifuged to obtain the supernatants, the supernatants were added with water of equal volume and centrifuged again to take the supernatant for injection, and the blood drug concentration was quantitatively analyzed by the LC-MS/MS analysis method, and pharmacokinetic parameters were calculated, such as max concentration (Cmax), clearance (CL), half-life (T1/2), volumes of distribution (Vdss), the area under the plasma concentration-time curve (AUC0-last), bioavailability (F) etc.

IC50 [1] [nM]	IC50 [2] [nM]	IC50 [3] [nM]	IC50 [4] [nM]	half-life ([5]; iv, 1 mg/kg, IV 1 mg/kg, read-out: Half-life T1/2 (IV) (converted)) [h]	clearance ([5]; iv, 1 mg/kg, study doses 1 mg/kg intravenous, 2 mg/kg oral, read-out: Clearance CL) [mL/min/kg]	Vd ([5]; iv, 1 mg/kg, study doses 1 mg/kg intravenous, 2 mg/kg oral, read-out: Volumes of distribution Vdss) [L/kg]	Cmax ([5]; study doses 1 mg/kg intravenous, 2 mg/kg oral, route not given, read-out: Max concentration Cmax) [nM]	AUC(0-t) ([5]; po, 2 mg/kg, PO 2 mg/kg, read-out: The area under the plasma concentration-time curve AUC0-last PO) [µM·h]	bioavailability ([5]; po, 2 mg/kg, oral 2 mg/kg vs intravenous 1 mg/kg, read-out: Bioavailability F) [%]	Structure (SMILES)
92.2	1.12	1.17	0.46	–	–	–	–	–	–	N#Cc1ccc(CN2CCC3(CC2)CC(N[C@@H]2C[C@H]2c2ccccc2)CO3)cc1 (stereo partly shown) [Hydrochloride of the compound 21]
1140	91.4	337	33.1	–	–	–	–	–	–	O=C(O)C1(CN2CCC3(CC2)CC(N[C@@H]2C[C@H]2c2ccccc2)CO3)CCC1 (stereo partly shown) [Hydrochloride of the compound 30]
1160	3.97	0.55	1.9	–	–	–	–	–	–	O=C(O)CC1(N2CCC3(CC2)CC(N[C@@H]2C[C@H]2c2ccccc2)CO3)CNC1 (stereo partly shown) [Hydrochloride of the compound 32]
38.4	4.38	1.92	1.37	1.39	25.3	2.09	1150	2.14	58.3	NC1(C(=O)N2CCC3(CC2)CC(N[C@@H]2C[C@H]2c2ccccc2)CO3)CC1 (stereo partly shown) [Hydrochloride of the compound 34]
